Measurements: patent US8013156B2 (Exelixis, Inc., priority 2003, dated 2011)

Each compound was assayed against Tie-2 (Homo sapiens, UniProt Q02763) (assay: Tie-2 tyrosine kinase activity assay (luciferase/luciferin ATP consumption with pEY substrate, or 33P-ATP incorporation)). Conditions: human enzyme Tie-2.
Format: biochemical
Method: One measure of inhibition is Ki. […] The Ki for a compound is determined from the IC50 based on three assumptions. First, only one compound molecule binds to the enzyme and there is no cooperativity. […] Third, the enzymatic rate of the enzyme-inhibitor complex is zero. The rate data (i.e. compound concentration) are fitted to the equation:
[formula] where V is the observed rate, Vmax, is the rate of the free enzyme, I0 is the inhibitor concentration, E0 is the enzyme concentration, and Kd is the dissociation constant of the enzyme-inhibitor complex.
Tyrosine kinase activity is determined by 1) measurement of kinase-dependent ATP consumption by in the presence of a generic substrate such as […], tyrosine (pEY), by luciferase/luciferin-mediated chemiluminescence or; 2) incorporation of radioactive phosphate derived from ^33P-ATP into a generic substrate which has been adsorbed onto the well surface of polystyrene microtiter plates. Phosphorylated substrate products are quantified by scintillation spectrometry.
Inhibition is indicated as IC50 with following key: A=IC50 less than 50 nM, B=IC50 greater than 50 nM, but less than or equal to 1000 nM, C=IC50 greater than 1000 nM, but less than 10,000 nM, D=IC50 10,000 nM or greater, and “-”=no data available. The abbreviation for human enzyme, Tie-2, is defined as tyrosine kinase with immunoglobulin and EGF repeats.

Sequence of Tie-2 (Q02763 23-1124): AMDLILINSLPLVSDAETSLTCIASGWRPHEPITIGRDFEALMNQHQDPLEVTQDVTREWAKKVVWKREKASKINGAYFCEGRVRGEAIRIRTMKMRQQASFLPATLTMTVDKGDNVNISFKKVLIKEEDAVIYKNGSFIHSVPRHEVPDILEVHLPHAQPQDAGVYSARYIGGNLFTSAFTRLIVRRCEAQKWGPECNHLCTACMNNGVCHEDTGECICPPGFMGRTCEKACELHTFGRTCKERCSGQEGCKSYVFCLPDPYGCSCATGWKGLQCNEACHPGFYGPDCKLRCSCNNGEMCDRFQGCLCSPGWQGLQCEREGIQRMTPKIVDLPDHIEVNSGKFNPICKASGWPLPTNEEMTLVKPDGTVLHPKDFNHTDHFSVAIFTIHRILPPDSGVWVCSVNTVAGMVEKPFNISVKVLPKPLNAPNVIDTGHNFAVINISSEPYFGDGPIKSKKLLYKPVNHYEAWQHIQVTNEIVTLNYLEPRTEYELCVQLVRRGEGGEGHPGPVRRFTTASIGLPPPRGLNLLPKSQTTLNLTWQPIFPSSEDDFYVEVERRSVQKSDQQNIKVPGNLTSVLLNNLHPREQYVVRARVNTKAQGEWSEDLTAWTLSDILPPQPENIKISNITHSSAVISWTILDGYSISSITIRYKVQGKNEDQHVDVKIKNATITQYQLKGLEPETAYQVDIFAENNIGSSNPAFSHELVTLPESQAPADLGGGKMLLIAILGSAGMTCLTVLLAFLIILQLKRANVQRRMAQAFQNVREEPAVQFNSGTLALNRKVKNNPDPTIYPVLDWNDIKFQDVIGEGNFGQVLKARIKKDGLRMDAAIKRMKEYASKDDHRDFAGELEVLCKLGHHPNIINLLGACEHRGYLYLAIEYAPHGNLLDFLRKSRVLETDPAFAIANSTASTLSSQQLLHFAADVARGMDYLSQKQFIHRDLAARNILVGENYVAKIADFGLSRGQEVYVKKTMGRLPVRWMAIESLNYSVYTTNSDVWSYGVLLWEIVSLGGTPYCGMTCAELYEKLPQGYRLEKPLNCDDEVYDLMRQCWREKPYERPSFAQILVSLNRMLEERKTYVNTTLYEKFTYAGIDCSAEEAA

| Structure (SMILES) | IC50 [nM] |
| --- | --- |
| NC(=O)c1nccc(COc2nsnc2N2CCN(C(=O)Nc3cc(C(F)(F)F)cc(C(F)(F)F)c3)CC2)n1 [Example 136, 4-[({4-[4-({[3,5-bis(trifluoromethyl)phenyl]amino}carbonyl)piperazin-1-yl]-1,2,5-thiadiazol-3-yl}oxy)methyl]pyrimidine-2-carboxamide] | 50 to 1000 |
| COc1cccc(NC(=O)N2CCN(c3nsnc3OCc3ccnc(N)n3)CC2)c1 [Example 259, 4-(4-{[(2-aminopyrimidin-4-yl)methyl]oxy}-1,2,5-thiadiazol-3-yl)-N-[3-(methyloxy)phenyl]piperazine-1-carboxamide] | 50 to 1000 |
| O=C(Nc1cccc(C(F)(F)F)c1)NC1CCN(c2nccnc2OCc2ccncc2)C1 (stereo not drawn) [Example 66, N-(1-{3-[(pyridin-4-ylmethyl)oxy]pyrazin-2-yl}pyrrolidin-3-yl)-N′-[3-(trifluoromethyl)phenyl]urea] | 50 to 1000 |
| Nc1nccc(COc2cccnc2N2CCN(C(=O)Nc3cccc(Cl)c3)CC2)n1 [Example 183, 4-(3-{[(2-aminopyrimidin-4-yl)methyl]oxy}pyridin-2-yl)-N-(3-chlorophenyl)piperazine-1-carboxamide] | 50 to 1000 |
| CC1CN(c2nccnc2OCc2ccncc2)CC(C)N1C(=O)Nc1cc(C(F)(F)F)cc(C(F)(F)F)c1 (stereo not drawn) [Example 64, N-[3,5-bis(trifluoromethyl)phenyl]-2,6-dimethyl-4-{3-[(pyridin-4-ylmethyl)oxy]pyrazin-2-yl}piperazine-1-carboxamide] | 50 to 1000 |
| CC1CN(c2nccnc2OCc2ccncc2)C(C)CN1C(=O)Nc1cccc(C(F)(F)F)c1 (stereo not drawn) [Example 79, 2,5-dimethyl-4-{3-[(pyridin-4-ylmethyl)oxy]pyrazin-2-yl}-N-[3-(trifluoromethyl)phenyl]piperazine-1-carboxamide] | 50 to 1000 |
| C[C@@H]1CN(c2nsnc2OCc2ccncc2)CCN1C(=O)Nc1cccc(C(F)(F)F)c1 [Example 53, (2R)-2-methyl-4-{4-[(pyridin-4-ylmethyl)oxy]-1,2,5-thiadiazol-3-yl}-N-[3-(trifluoromethyl)phenyl]piperazine-1-carboxamide] | 50 to 1000 |
| CNc1cc(COc2nsnc2N2CCNCC2)ccn1 [Example 109, N-methyl-4-{[(4-piperazin-1-yl-1,2,5-thiadiazol-3-yl)oxy]methyl}pyridin-2-amine] | ≥ 10000 |
| CCCNc1nccc(COc2nsnc2N2CCN(C(=O)Nc3cc(C(F)(F)F)cc(C(F)(F)F)c3)CC2)n1 [Example 122, N-[3,5-bis(trifluoromethyl)phenyl]-4-[4-({[2-(propylamino)pyrimidin-4-yl]methyl}oxy)-1,2,5-thiadiazol-3-yl]piperazine-1-carboxamide] | 50 to 1000 |
| CCc1cccc(NC(=O)N2CCN(c3nsnc3OCc3ccnc(N)n3)CC2)c1 [Example 158, 4-(4-{[(2-aminopyrimidin-4-yl)methyl]oxy}-1,2,5-thiadiazol-3-yl)-N-(3-ethylphenyl)piperazine-1-carboxamide] | 50 to 1000 |
| CCc1cccc(NC(=O)N2C(C)CN(c3nccnc3OCc3ccncc3)CC2C)c1 (stereo not drawn) [Example 94, N-(3-ethylphenyl)-2,6-dimethyl-4-{3-[(pyridin-4-ylmethyl)oxy]pyrazin-2-yl}piperazine-1-carboxamide] | 50 to 1000 |
| COc1ccc(COc2nsnc2N2CCN(C(=O)Nc3cc(C(F)(F)F)cc(C(F)(F)F)c3)CC2)cc1 [Example 17] | ≥ 10000 |
| Nc1nccc(COc2nsnc2N2CCN(C(=O)Nc3cc(C(F)(F)F)ccc3Cl)CC2)n1 [Example 262, 4-(4-{[(2-aminopyrimidin-4-yl)methyl]oxy}-1,2,5-thiadiazol-3-yl)-N-[2-chloro-5-(trifluoromethyl)phenyl]piperazine-1-carboxamide] | 50 to 1000 |
| N#Cc1nccc(COc2nsnc2N2CCN(C(=O)Nc3cc(C(F)(F)F)cc(C(F)(F)F)c3)CC2)n1 [Example 134, N-[3,5-bis(trifluoromethyl)phenyl]-4-(4-{[(2-cyanopyrimidin-4-yl)methyl]oxy}-1,2,5-thiadiazol-3-yl)piperazine-1-carboxamide] | ≥ 10000 |

The remaining lines, values ahead:

| IC50 [nM] | Structure (SMILES) |
| --- | --- |
| < 50 | CCc1cccc(NC(=O)N2CCN(c3nccnc3OCc3ccncc3)CC2C)c1 (stereo not drawn) [Example 93, N-(3-ethylphenyl)-2-methyl-4-{3-[(pyridin-4-ylmethyl)oxy]pyrazin-2-yl}piperazine-1-carboxamide] |
| < 50 | CCc1cc(CC)cc(NC(=O)N2CCN(c3nccnc3OCc3ccnc(N)n3)CC2)c1 [Example 215, 4-(3-{[(2-aminopyrimidin-4-yl)methyl]oxy}pyrazin-2-yl)-N-(3,5-diethylphenyl)piperazine-1-carboxamide] |
| < 50 | CNc1cc(COc2nsnc2N2CCN(C(=O)Nc3cc(C(F)(F)F)cc(C(F)(F)F)c3)CC2)ccn1 [Example 112, N-[3,5-bis(trifluoromethyl)phenyl]-4-[4-({[2-(methylamino)pyridin-4-yl]methyl}oxy)-1,2,5-thiadiazol-3-yl]piperazine-1-carboxamide] |
| < 50 | O=C(Nc1cc(C(F)(F)F)cc(C(F)(F)F)c1)N1CCN(c2nsnc2OCc2ccncc2)CC1 [Example 2] |
| < 50 | CCc1cccc(NC(=O)N2CCN(c3nsnc3OCc3ccnc(NC(=O)OC)c3)CC2)c1 [Example 133, methyl [4-({[4-(4-{[(3-ethylphenyl)amino]carbonyl}piperazin-1-yl)-1,2,5-thiadiazol-3-yl]oxy}methyl)pyridin-2-yl]carbamate] |
| < 50 | CN1CCCC(C(=O)Nc2cc(COc3nsnc3N3CCN(C(=O)Nc4cc(C(F)(F)F)cc(C(F)(F)F)c4)CC3)ccn2)C1 (stereo not drawn) [Example 143, N-[3,5-bis(trifluoromethyl)phenyl]-4-(4-{[(2-{[(1-methylpiperidin-3-yl)carbonyl]amino}pyridin-4-yl)methyl]oxy}-1,2,5-thiadiazol-3-yl)piperazine-1-carboxamide] |
| < 50 | CCc1cc(Cl)cc(NC(=O)N2CCN(c3ncccc3OCc3ccnc(NC(=O)CN4CCN(C)CC4)c3)CC2)c1 [Example 198, N-(3-chloro-5-ethylphenyl)-4-(3-{[(2-{[(4-methylpiperazin-1-yl)acetyl]amino}pyridin-4-yl)methyl]oxy}pyridin-2-yl)piperazine-1-carboxamide] |
| < 50 | CCc1cc(F)cc(NC(=O)N2CCN(c3ncccc3OCc3ccnc(N)n3)CC2)c1 [Example 247, 4-(3-{[(2-aminopyrimidin-4-yl)methyl]oxy}pyridin-2-yl)-N-(3-ethyl-5-fluorophenyl)piperazine-1-carboxamide] |
| < 50 | CN1CCN(CC(=O)Nc2cc(COc3cccnc3N3CCN(C(=O)Nc4cc(C(F)(F)F)cc(Cl)c4F)CC3)ccn2)CC1 [Example 243, N-[3-chloro-2-fluoro-5-(trifluoromethyl)phenyl]-4-(3-{[(2-{[(4-methylpiperazin-1-yl)acetyl]amino}pyridin-4-yl)methyl]oxy}pyridin-2-yl)piperazine-1-carboxamide] |
| < 50 | CCc1cccc(NC(=O)Nc2cc(COc3cccnc3N3CCN(C(=O)Nc4cccc(CC)c4)CC3)ccn2)c1 [Example 170, N-(3-ethylphenyl)-4-[3-({[2-({[(3-ethylphenyl)amino]carbonyl}amino)pyridin-4-yl]methyl}oxy)pyridin-2-yl]piperazine-1-carboxamide] |
| < 50 | CN(C(=O)N1CCN(c2ncccc2OCc2ccnc(N)n2)CC1)c1cc(C(F)(F)F)cc(C(F)(F)F)c1 [Example 250, 4-(3-{[(2-aminopyrimidin-4-yl)methyl]oxy}pyridin-2-yl)-N-[3,5-bis(trifluoromethyl)phenyl]-N-methylpiperazine-1-carboxamide] |
| < 50 | CCc1cc(Br)cc(NC(=O)N2CCN(c3ncccc3OCc3ccnc(N)n3)CC2)c1 [Example 181, 4-(3-{[(2-aminopyrimidin-4-yl)methyl]oxy}pyridin-2-yl)-N-(3-bromo-5-ethylphenyl)piperazine-1-carboxamide] |
| < 50 | CN1CCN(CC(=O)Nc2cc(COc3cccnc3N3CCN(C(=O)Nc4cc(Cl)cc(Cl)c4)CC3)ccn2)CC1 [Example 213, N-(3,5-dichlorophenyl)-4-(3-{[(2-{[(4-methylpiperazin-1-yl)acetyl]amino}pyridin-4-yl)methyl]oxy}pyridin-2-yl)piperazine-1-carboxamide] |
| < 50 | CN1CCN(CC(=O)Nc2cc(COc3cccnc3N3CCN(C(=O)Nc4cc(C(F)(F)F)cc(C(F)(F)F)c4)CC3)ccn2)CC1 [Example 173, N-[3,5-bis(trifluoromethyl)phenyl]-4-(3-{[(2-{[(4-methylpiperazin-1-yl)acetyl]amino}pyridin-4-yl)methyl]oxy}pyridin-2-yl)piperazine-1-carboxamide] |
| < 50 | Nc1nccc(COc2cccnc2N2CCN(C(=O)Nc3cc(Cl)cc(C(F)(F)F)c3)CC2)n1 [Example 235, 4-(3-{[(2-aminopyrimidin-4-yl)methyl]oxy}pyridin-2-yl)-N-[3-chloro-5-(trifluoromethyl)phenyl]piperazine-1-carboxamide] |
| < 50 | CC(Oc1cccnc1N1CCN(C(=O)Nc2cc(C(F)(F)F)cc(C(F)(F)F)c2)CC1)c1ccnc(N)n1 (stereo not drawn) [Example 216, 4-(3-{[1-(2-aminopyrimidin-4-yl)ethyl]oxy}pyridin-2-yl)-N-[3,5-bis(trifluoromethyl)phenyl]piperazine-1-carboxamide] |
